According to ChEMBL document CHEMBL4342482 (ACS Med Chem Lett, 2020):
Activity calls are given as the source filed them. The rule behind the calls is not given here.

Legend:
[1] = molecular target: T1, Phosphatidylinositol 3,4,5-trisphosphate 5-phosphatase 2 (Homo sapiens) (UniProt O15357); assay: Substrate activity at recombinant human N-terminal His-tagged SHIP2 (419 to 832 residues) expressed in Escherichia coli Rosetta2 (DE3) cells assessed as 1,3-Di-OH-Bz(2,4)P2 product formation at 100 uM incubated for 2 hrs in presence of AS1949490 by fluorescence based HPLC analysis
T1 sequence (whole entry): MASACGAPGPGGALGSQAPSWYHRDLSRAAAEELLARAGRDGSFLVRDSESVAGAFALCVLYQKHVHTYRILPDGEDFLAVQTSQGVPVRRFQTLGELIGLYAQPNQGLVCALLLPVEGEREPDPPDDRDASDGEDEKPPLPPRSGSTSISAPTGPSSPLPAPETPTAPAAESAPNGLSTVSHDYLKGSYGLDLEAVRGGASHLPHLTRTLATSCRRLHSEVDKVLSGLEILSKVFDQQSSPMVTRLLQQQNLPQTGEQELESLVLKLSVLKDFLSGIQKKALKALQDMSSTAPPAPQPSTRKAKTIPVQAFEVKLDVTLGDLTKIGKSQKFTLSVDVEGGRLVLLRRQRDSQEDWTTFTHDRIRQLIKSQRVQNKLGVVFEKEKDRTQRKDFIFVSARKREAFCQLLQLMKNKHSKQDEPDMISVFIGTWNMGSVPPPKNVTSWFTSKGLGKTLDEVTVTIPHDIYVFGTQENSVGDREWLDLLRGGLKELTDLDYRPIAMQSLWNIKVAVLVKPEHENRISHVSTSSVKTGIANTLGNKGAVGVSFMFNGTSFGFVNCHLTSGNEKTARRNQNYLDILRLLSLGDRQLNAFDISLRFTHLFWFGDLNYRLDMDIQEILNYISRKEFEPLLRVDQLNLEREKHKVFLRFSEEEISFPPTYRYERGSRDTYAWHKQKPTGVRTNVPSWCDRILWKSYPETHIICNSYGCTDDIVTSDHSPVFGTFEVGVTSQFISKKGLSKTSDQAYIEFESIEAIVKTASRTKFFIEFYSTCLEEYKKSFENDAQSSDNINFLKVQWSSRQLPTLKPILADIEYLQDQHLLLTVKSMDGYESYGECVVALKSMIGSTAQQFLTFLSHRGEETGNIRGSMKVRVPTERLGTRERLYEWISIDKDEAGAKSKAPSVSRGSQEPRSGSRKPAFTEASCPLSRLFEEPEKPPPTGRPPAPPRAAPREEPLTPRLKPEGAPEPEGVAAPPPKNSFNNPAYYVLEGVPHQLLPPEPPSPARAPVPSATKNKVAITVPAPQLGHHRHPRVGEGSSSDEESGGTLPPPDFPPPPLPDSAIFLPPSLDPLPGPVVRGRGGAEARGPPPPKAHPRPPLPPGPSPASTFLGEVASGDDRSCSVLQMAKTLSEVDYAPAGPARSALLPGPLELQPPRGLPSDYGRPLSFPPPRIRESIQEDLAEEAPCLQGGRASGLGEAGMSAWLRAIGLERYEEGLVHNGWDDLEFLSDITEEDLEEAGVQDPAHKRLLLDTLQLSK

[2] = molecular target: T1, Phosphatidylinositol 3,4,5-trisphosphate 5-phosphatase 2 (Homo sapiens); assay: Substrate activity at recombinant human N-terminal His-tagged SHIP2 (419 to 832 residues) expressed in Escherichia coli Rosetta2 (DE3) cells assessed as 1,2-diOH-Bz(3,4)P2 product formation at 100 uM incubated for 2 hrs in presence of AS1949490 by fluorescence based HPLC analysis
[3] = molecular target: T1, Phosphatidylinositol 3,4,5-trisphosphate 5-phosphatase 2 (Homo sapiens); assay: Binding affinity to recombinant human N-terminal His-tagged SHIP2 (419 to 832 residues) expressed in Escherichia coli Rosetta2 (DE3) cells assessed as increase in release of phosphate at 100 uM incubated for 10 mins by phosphate release assay
[4] = molecular target: T1, Phosphatidylinositol 3,4,5-trisphosphate 5-phosphatase 2 (Homo sapiens); assay: Substrate activity at recombinant human N-terminal His-tagged SHIP2 (419 to 832 residues) expressed in Escherichia coli Rosetta2 (DE3) cells assessed as 5-OH-Bz(1,2,4)P3 product formation at 100 uM incubated for 2 hrs in presence of AS1949490 by fluorescence based HPLC analysis
[5] = molecular target: T2, Inositol polyphosphate-5-phosphatase A (Homo sapiens, UniProt Q14642); assay: Inhibition of recombinant human brain INPP5A expressed in Escherichia coli incubated for 10 mins by malachite green reagent based phosphate assay
T2 sequence (Q14642 whole entry): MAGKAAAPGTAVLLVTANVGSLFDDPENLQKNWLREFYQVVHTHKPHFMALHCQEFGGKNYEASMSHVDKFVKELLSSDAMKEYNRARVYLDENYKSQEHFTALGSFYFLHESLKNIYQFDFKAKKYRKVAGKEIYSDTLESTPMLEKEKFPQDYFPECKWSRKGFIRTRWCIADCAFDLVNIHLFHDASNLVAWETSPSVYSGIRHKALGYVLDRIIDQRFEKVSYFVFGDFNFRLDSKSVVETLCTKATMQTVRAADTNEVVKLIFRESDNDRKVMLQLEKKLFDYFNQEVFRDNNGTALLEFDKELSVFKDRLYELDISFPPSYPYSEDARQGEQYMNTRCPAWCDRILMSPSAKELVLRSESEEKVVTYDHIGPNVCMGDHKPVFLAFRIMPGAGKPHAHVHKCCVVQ

[6] = molecular target: T1, Phosphatidylinositol 3,4,5-trisphosphate 5-phosphatase 2 (Homo sapiens); assay: Substrate activity at recombinant human N-terminal His-tagged SHIP2 (419 to 832 residues) expressed in Escherichia coli Rosetta2 (DE3) cells assessed as 5-OH-Bz(1,2,4)P3 product formation at 100 uM incubated for 2 hrs in presence of INS(1,3,4,5)P4 by fluorescence based HPLC analysis
[7] = molecular target: T1, Phosphatidylinositol 3,4,5-trisphosphate 5-phosphatase 2 (Homo sapiens); assay: Substrate activity at recombinant human N-terminal His-tagged SHIP2 (419 to 832 residues) expressed in Escherichia coli Rosetta2 (DE3) cells assessed as 5-OH-Bz(1,2,4)P3 product formation at 100 uM incubated for 2 hrs by fluorescence based HPLC analysis
[8] = molecular target: T3, Phosphatidylinositol 3,4,5-trisphosphate 5-phosphatase 2 (Homo sapiens, UniProt O15357); assay: Displacement of 2FAMInsP5 from recombinant human N-terminal His-tagged SHIP2 (419 to 832 residues) expressed in Escherichia coli Rosetta2 (DE3) cells by fluorescence polarization assay
T3 sequence (O15357 whole entry): T1 sequence (whole entry)

[9] = molecular target: T1, Phosphatidylinositol 3,4,5-trisphosphate 5-phosphatase 2 (Homo sapiens); assay: Substrate activity at recombinant human N-terminal His-tagged SHIP2 (419 to 832 residues) expressed in Escherichia coli Rosetta2 (DE3) cells assessed as 5-OH-Bz(1,2,4)P3 product formation at 100 uM incubated for 2 hrs with 100 nM to 1 mM of SHIP2 by fluorescence based HPLC analysis
[10] = molecular target: T1, Phosphatidylinositol 3,4,5-trisphosphate 5-phosphatase 2 (Homo sapiens); assay: Substrate activity at recombinant human N-terminal His-tagged SHIP2 (419 to 832 residues) expressed in Escherichia coli Rosetta2 (DE3) cells assessed as 5-OH-Bz(1,2,4)P3 product formation at 100 uM incubated for 12 hrs by fluorescence based HPLC analysis
[11] = molecular target: T1, Phosphatidylinositol 3,4,5-trisphosphate 5-phosphatase 2 (Homo sapiens); assay: Substrate activity at recombinant human N-terminal His-tagged SHIP2 (419 to 832 residues) expressed in Escherichia coli Rosetta2 (DE3) cells assessed as 5-OH-Bz(1,2,4)P3 product formation at 100 uM measured upto 4 hrs by fluorescence based HPLC analysis
[12] = molecular target: Type II inositol 1,4,5-trisphosphate 5-phosphatase (Homo sapiens, UniProt P32019); assay: Inhibition of recombinant human C-terminal His-tagged INPP5B (259 to 563 residues) expressed in Escherichia coli BL21 (DE3) incubated for 5 mins using Ins(1,4,5)P3 as substrate by malachite green reagent based phosphate assay
Chain of Type II inositol 1,4,5-trisphosphate 5-phosphatase (P32019 whole entry, the tested form may be a part): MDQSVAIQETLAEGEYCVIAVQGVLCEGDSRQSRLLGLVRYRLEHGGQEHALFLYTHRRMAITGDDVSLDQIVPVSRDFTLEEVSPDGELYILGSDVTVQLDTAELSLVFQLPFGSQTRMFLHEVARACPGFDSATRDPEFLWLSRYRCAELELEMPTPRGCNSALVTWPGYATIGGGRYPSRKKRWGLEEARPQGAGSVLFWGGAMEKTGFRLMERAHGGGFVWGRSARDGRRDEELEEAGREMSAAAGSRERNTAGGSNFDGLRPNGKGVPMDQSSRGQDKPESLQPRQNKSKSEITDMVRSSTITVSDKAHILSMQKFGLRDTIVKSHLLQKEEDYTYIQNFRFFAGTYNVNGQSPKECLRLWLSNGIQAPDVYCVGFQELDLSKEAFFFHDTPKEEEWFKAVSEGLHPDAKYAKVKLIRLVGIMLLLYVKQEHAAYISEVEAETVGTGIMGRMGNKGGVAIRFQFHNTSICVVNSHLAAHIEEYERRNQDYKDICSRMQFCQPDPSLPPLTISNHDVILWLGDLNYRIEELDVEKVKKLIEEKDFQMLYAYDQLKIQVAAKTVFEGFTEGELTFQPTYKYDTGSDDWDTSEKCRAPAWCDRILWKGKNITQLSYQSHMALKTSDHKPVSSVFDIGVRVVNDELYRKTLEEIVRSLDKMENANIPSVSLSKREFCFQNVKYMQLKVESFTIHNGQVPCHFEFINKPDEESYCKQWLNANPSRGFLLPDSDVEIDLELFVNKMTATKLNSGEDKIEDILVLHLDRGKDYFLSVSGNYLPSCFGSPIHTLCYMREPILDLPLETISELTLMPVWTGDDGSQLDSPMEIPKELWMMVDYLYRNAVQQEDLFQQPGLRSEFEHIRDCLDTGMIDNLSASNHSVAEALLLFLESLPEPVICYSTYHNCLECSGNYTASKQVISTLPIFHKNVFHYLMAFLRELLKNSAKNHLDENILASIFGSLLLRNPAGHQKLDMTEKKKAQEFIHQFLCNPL

[13] = molecular target: T3, Phosphatidylinositol 3,4,5-trisphosphate 5-phosphatase 2; assay: Displacement of Ins(1,3,4,5)P4 from recombinant human N-terminal His-tagged SHIP2 (419 to 832 residues) expressed in Escherichia coli BL21 (DE3)
[14] = molecular target: T1, Phosphatidylinositol 3,4,5-trisphosphate 5-phosphatase 2 (Homo sapiens); assay: Substrate activity at recombinant human N-terminal His-tagged SHIP2 (419 to 832 residues) expressed in Escherichia coli Rosetta2 (DE3) cells assessed as 3-OH-Bz(1,2,4)P3 product formation at 100 uM incubated for 2 hrs in presence of AS1949490 by fluorescence based HPLC analysis

| Structure (SMILES) | Activity [3] | IC50 [5] [µM] | IC50 [8] [µM] | also measured |
| --- | --- | --- | --- | --- |
| O=P(O)(O)Oc1ccc(OP(=O)(O)O)c(OP(=O)(O)O)c1O |  |  |  | Activity [1]: inactive; Activity [2]: Active |
| O=P(O)(O)Oc1cc(OP(=O)(O)O)c(OP(=O)(O)O)cc1OP(=O)(O)O | Active | 4 | 1.02 | Activity [4]: inactive; Activity [6]: Active; Activity [7]: Active; Activity [9]: Active; Activity [10]: Active; Activity [11]: Active |
| O=P(O)(O)Oc1cccc(OP(=O)(O)O)c1OP(=O)(O)O | Active | 86 | 14.2 | IC50 [12]: 33.5 µM; IC50 [13]: > 1000 µM |
| O=P(O)(O)Oc1cc(OP(=O)(O)O)cc(OP(=O)(O)O)c1 | Active | 16 | 11.3 |  |
| O=P(O)(O)Oc1ccc(OP(=O)(O)O)c(OP(=O)(O)O)c1 | Active | 14 | 7.02 |  |
| O=P(O)(O)Oc1ccc(OP(=O)(O)O)c(OP(=O)(O)O)c1OP(=O)(O)O | Active | 98 | 2.78 | Activity [2]: Active; Activity [14]: inactive |
| O=P(O)(O)Oc1cc(OP(=O)(O)O)c(OP(=O)(O)O)c(OP(=O)(O)O)c1 | Active | 78 | 1.01 |  |
